Measurements as given in patent US20040086901A1, “Database for analyzing gene function and method of analyzing gene function by dspa” (priority 2000, published 2004).

Assays:
Assay type in all cases: cell-based, mouse
[1] = test system: NIH3T3 cells overexpressing RhoA; test: MTT cell viability, RhoA overexpressing cells vs parental line; settings: RhoA high-expressing cells / parental cell line, 3 to 4 days
Description: (§1) With regard to the function-known genes, the genes shown in the left column of Table 2 were used. With regard to the drugs, those shown in Table 1 were dissolved in DMSO to an extent of 100-fold of the maximum concentration for the search of the drugs and used. With regard to the cells, incubated NIH3T3 or ras-NIH3T3 cells were used.
(§2) Full-length cDNA of each function-known genes was incorporated into an expression vector (pRc-CMV, etc.) and transfected into NIH3T3 cells by a common method. Transformed cells were isolated using the resistance to G-418 as an index and the expression of the transfected gene in each cell was investigated by Western blotting method to select a highly expressing line.
(§3) Cell viabilities were measured according to the following procedures.
(§4) 1) From the 2nd to the 11th rows of a 96-well plate were filled with DMEM (50 μl). The 12th row was filled with 100 μl of DMEM.
(§5) 2) The 1st row was filled with 98 μl of DMEM.
(§6) 3) Drugs (2 μl each) were added into the 1st row.
(§7) 4) Continuous double-dilution was conducted from the 1st to the 9th rows. Fifty μl were taken out from the 9th row and discarded. The plate was preserved in a CO2 incubator.
(§8) 5) Cells (each high-expressing cells and the parental cell line) were detached from the medium using a trypsin solution, suspended in 10% CS-DMEM and transferred to a test tube and cell numbers (cell/ml) were counted.
(§9) 6) The cells were diluted to a concentration of 1×10^5 cells/ml, and 50 μl of the cell suspension were added to the 1st to the 11th rows of the plate followed by gently stirring.
(§10) 7) The plate was transferred to the CO2 incubator and incubated for 3 to 4 days.
(§11) 8) MTT (5 mg/ml in PBS) (10 μl) was added to the 1st to the 12th rows of the plate and incubated in the CO2 incubator at 37° C. for 4 hours.
(§12) 9) A reaction stop solution (0.04N HCl in isopropanol) (150 μl) was added followed by mixing well and being allowed to stand at room temperature for about 2 hours.
(§13) 10) Coloration of formazan which was a metabolite of the MTT dye was measured using a microplate reader. The measurement wavelength was 574 nm and the reference wavelength was 655 nm. The 10th and the 11th rows of the plate were 100% controls and the 12th row was a 0% control.
(§14) As an index for the sensitivity of highly gene-expressing cells and the parental cell line to various drugs, each of the IC40 values thereof was specified and ratios of the IC40 values were calculated. FIG. 2 and FIG. 3 are the examples where ratios of IC40 values were calculated from a curve showing the dependency on the concentration of the chemical versus the viability. After that, logarithmic values of ratios of IC40 values were calculated from each gene.

[2] = test system: NIH3T3 cells overexpressing DAN; test: MTT cell viability, DAN overexpressing cells vs parental line; settings: DAN high-expressing cells / parental cell line, 3 to 4 days
Description: as §1, §2, §3, §4, §5, §6, §7, §8, §9, §10, §11, §12, §13, §14

[3] = test system: NIH3T3 cells overexpressing erbB2; test: MTT cell viability, erbB2 overexpressing cells vs parental line; settings: erbB2 high-expressing cells / parental cell line, 3 to 4 days
Description: as §1, §2, §3, §4, §5, §6, §7, §8, §9, §10, §11, §12, §13, §14

[4] = test system: NIH3T3 cells overexpressing HNF1; test: MTT cell viability, HNF1 overexpressing cells vs parental line; settings: HNF1 high-expressing cells / parental cell line, 3 to 4 days
Description: as §1, §2, §3, §4, §5, §6, §7, §8, §9, §10, §11, §12, §13
(§15) As an index for the sensitivity of highly gene-expressing cells and the parental cell line to various drugs, each of the IC40 values thereof was specified and ratios of the IC40 values were calculated. […] After that, logarithmic values of ratios of IC40 values were calculated from each gene.

[5] = test system: NIH3T3 cells overexpressing PKCalpha-KN; test: MTT cell viability, PKCalpha-KN overexpressing cells vs parental line; settings: 3 to 4 days
Description: as §1, §2, §3, §4, §5, §6, §7, §8, §9, §10, §11, §12, §13, §15

[6] = test system: NIH3T3 cells overexpressing CP-antisense; test: MTT cell viability, CP-antisense cells vs parental line; settings: 3 to 4 days
Description: as §1, §2, §3, §4, §5, §6, §7, §8, §9, §10, §11, §12, §13, §14

[7] = test system: NIH3T3 cells overexpressing caspase-1; test: MTT cell viability, caspase-1 overexpressing cells vs parental line; settings: caspase-1 high-expressing cells / parental cell line, 3 to 4 days
Description: as §1, §2, §3, §4, §5, §6, §7, §8, §9, §10, §11, §12, §13, §15

[8] = test system: NIH3T3 cells overexpressing CaMKIIa; test: MTT cell viability, CaMKIIa overexpressing cells vs parental line; settings: CaMKIIa high-expressing cells / parental cell line, 3 to 4 days
Description: as §1, §2, §3, §4, §5, §6, §7, §8, §9, §10, §11, §12, §13, §15

[9] = test system: NIH3T3 cells overexpressing HNF3b; test: MTT cell viability, HNF3b overexpressing cells vs parental line; settings: HNF3b high-expressing cells / parental cell line, 3 to 4 days
Description: as §1, §2, §3, §4, §5, §6, §7, §8, §9, §10, §11, §12, §13, §15

[10] = test system: NIH3T3 cells overexpressing cystatin E; test: MTT cell viability, cystatin E overexpressing cells vs parental line; settings: cystatin E high-expressing cells / parental cell line, 3 to 4 days
Description: as §1, §2, §3, §4, §5, §6, §7, §8, §9, §10, §11, §12, §13, §14

[11] = test system: NIH3T3 cells, TPA (PKC downreg); test: MTT cell viability, TPA (PKC downreg) cells vs parental line; settings: 3 to 4 days
Description: as §1, §2, §3, §4, §5, §6, §7, §8, §9, §10, §11, §12, §13, §14

[12] = test system: NIH3T3 cells overexpressing HNF4; test: MTT cell viability, HNF4 overexpressing cells vs parental line; settings: HNF4 high-expressing cells / parental cell line, 3 to 4 days
Description: as §1, §2, §3, §4, §5, §6, §7, §8, §9, §10, §11, §12, §13, §15

[13] = test system: NIH3T3 cells overexpressing HSP4O; test: MTT cell viability, HSP4O overexpressing cells vs parental line; settings: HSP4O high-expressing cells / parental cell line, 3 to 4 days
Description: as §1, §2, §3, §4, §5, §6, §7, §8, §9, §10, §11, §12, §13, §14

[14] = test system: NIH3T3 cells overexpressing PDGF-R; test: MTT cell viability, PDGF-R overexpressing cells vs parental line; settings: PDGF-R high-expressing cells / parental cell line, 3 to 4 days
Description: as §1, §2, §3, §4, §5, §6, §7, §8, §9, §10, §11, §12, §13, §14

[15] = test system: NIH3T3 cells overexpressing PKCepsilon-KN; test: MTT cell viability, PKCepsilon-KN overexpressing cells vs parental line; settings: 3 to 4 days
Description: as §1, §2, §3, §4, §5, §6, §7, §8, §9, §10, §11, §12, §13, §15

[16] = test system: NIH3T3 cells overexpressing m-calpain; test: MTT cell viability, m-calpain overexpressing cells vs parental line; settings: m-calpain high-expressing cells / parental cell line, 3 to 4 days
Description: as §1, §2, §3, §4, §5, §6, §7, §8, §9, §10, §11, §12, §13, §15

[17] = test system: NIH3T3 cells overexpressing p38-DN; test: MTT cell viability, p38-DN overexpressing cells vs parental line; settings: p38-DN high-expressing cells / parental cell line, 3 to 4 days
Description: as §1, §2, §3, §4, §5, §6, §7, §8, §9, §10, §11, §12, §13, §15

[18] = test system: NIH3T3 cells overexpressing CBP8; test: MTT cell viability, CBP8 overexpressing cells vs parental line; settings: CBP8 high-expressing cells / parental cell line, 3 to 4 days
Description: as §1, §2, §3, §4, §5, §6, §7, §8, §9, §10, §11, §12, §13, §14

[19] = test system: NIH3T3 cells overexpressing cAMP-PK-CS; test: MTT cell viability, cAMP-PK-CS overexpressing cells vs parental line; settings: cAMP-PK-CS high-expressing cells / parental cell line, 3 to 4 days
Description: as §1, §2, §3, §4, §5, §6, §7, §8, §9, §10, §11, §12, §13, §15

[20] = test system: NIH3T3 cells overexpressing v-src; test: MTT cell viability, v-src overexpressing cells vs parental line; settings: v-src high-expressing cells / parental cell line, 3 to 4 days
Description: as §1, §2, §3, §4, §5, §6, §7, §8, §9, §10, §11, §12, §13, §14

[21] = PKCalpha-KN (first of two lines) high-expressing cells / parental cell line
[22] = PKCalpha-KN (second of two lines) high-expressing cells / parental cell line
[23] = PKCepsilon-KN (first of two lines) high-expressing cells / parental cell line
[24] = PKCepsilon-KN (second of two lines) high-expressing cells / parental cell line

Row | SMILES | logarithmic value of ratio of IC40 values [1] | logarithmic value of ratio of IC40 values [2] | logarithmic value of ratio of IC40 values [3] | logarithmic value of ratio of IC40 values [4] | logarithmic value of ratio of IC40 values [5, 21] | logarithmic value of ratio of IC40 values [5, 22] | logarithmic value of ratio of IC40 values [6] | logarithmic value of ratio of IC40 values [7] | logarithmic value of ratio of IC40 values [8] | logarithmic value of ratio of IC40 values [9] | logarithmic value of ratio of IC40 values [10] | logarithmic value of ratio of IC40 values [11] | logarithmic value of ratio of IC40 values [12] | logarithmic value of ratio of IC40 values [13] | logarithmic value of ratio of IC40 values [14] | logarithmic value of ratio of IC40 values [15, 23] | logarithmic value of ratio of IC40 values [15, 24] | logarithmic value of ratio of IC40 values [16] | logarithmic value of ratio of IC40 values [17] | logarithmic value of ratio of IC40 values [18] | further results
1 | CN(C)CCCn1cc(C2=C(c3c[nH]c4ccccc34)C(=O)NC2=O)c2ccccc21 [GF109203X] | 0.24 | 0.65 | −0.40 | 0.345 | 0.22 | 0.62 | 0.00 | 0.23 | 0.04 | 0.21 | 0.27 | 0.09 | 0.40 | −0.07 | 0.00 | −0.17 | 0.32 | 0.35 | 0.58 | 0.16 | logarithmic value of ratio of IC40 values [19]: 0.27; logarithmic value of ratio of IC40 values [20]: −0.29
2 | C[C@@H]1C[C@@H]([C@H](O)CC2CC(=O)NC(=O)C2)C(=O)[C@@H](C)C1 [CHX, cycloheximide] | 0.14 | 0.72 | −0.64 | 0.38 | 0.30 | 0.29 | 0.00 | −0.05 | 0.04 | 0.07 | 0.00 | 0.00 | 0.22 | 0.00 | 0.51 | 0.06 | 0.20 | 0.22 | 0.04 | 0.00 | logarithmic value of ratio of IC40 values [19]: 0.23; logarithmic value of ratio of IC40 values [20]: −0.32
3 | COC[C@H]1OC(=O)c2coc3c2[C@@]1(C)C1=C(C3=O)[C@@H]2CCC(=O)[C@@]2(C)C[C@H]1OC(C)=O [Wortmannin, wortmannin] | 0.24 | 0.52 | 0.16 | 0.16 | 0.41 | −0.06 | −0.12 | 0.20 | −0.15 | 0.24 | 0.00 | 0.00 | 0.14 | −0.07 | 0.00 | −0.15 | −0.28 | 0.18 | −0.18 | 0.14 | logarithmic value of ratio of IC40 values [19]: −0.07; logarithmic value of ratio of IC40 values [20]: 0.08
4 | C/C=C(/C)C(=O)O[C@H]1C(C)=C2[C@H]([C@@H]1OC(=O)CCCCCCC)[C@@](C)(OC(C)=O)C[C@H](OC(=O)CCC)[C@@]1(O)[C@H]2OC(=O)[C@@]1(C)O [Thapsigargin, thapsigargin] | 0.26 | 0.18 | 0.11 | 0.16 | 0.10 | 0.12 | −0.30 | −0.30 | 0.09 | 0.24 | 0.00 | −0.23 | 0.00 | 0.18 | 0.29 | 0.09 | 0.20 | 0.05 | 0.02 | 0.12 | logarithmic value of ratio of IC40 values [19]: 0.05; logarithmic value of ratio of IC40 values [20]: 0.32
5 | C=C[C@@]1(C)CC(=O)[C@]2(O)[C@@]3(C)[C@@H](O)CCC(C)(C)[C@@H]3[C@H](O)[C@H](OC(C)=O)[C@@]2(C)O1 [Forskolin, forskolin] | 0.47 | 0.88 | 0.28 | 1.15 | −0.47 | 0.00 | −0.05 | 0.34 | 0.00 | 0.00 | 0.29 | −0.17 | 0.00 | −0.39 | 0.16 | 0.00 | 0.00 | 0.25 | −0.46 | 0.40 | logarithmic value of ratio of IC40 values [19]: 0.51; logarithmic value of ratio of IC40 values [20]: −0.46
